Assay type in all cases: cell-based, hepatitis C virus
The subject of test [1] is genotype 1a (H77) stable HCV replicon in Huh-7-derived cells. Briefly: Stable subgenomic HCV replicon EC50, genotype 1a (Renilla luciferase). To be noted: Hepatitis C virus, stable replicon genotype 1a, 72 h, read-out: EC50 1A RLUC. In a few lines: (§1)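 Compounds, three-fold diluted, were applied to Huh-7-derived cells harbouring luciferase replicons (genotype 1a H77, 1b Con1, 2a JFH-1, 4a ED43, with strain-specific adaptive mutations). Seventy-two hours later, intracellular replication was gauged by Renilla luciferase activity and EC50 derived by regression.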
In general terms: A replicon is a self-replicating genome or part of one, used to study replication in cells.

The test system of test [2] is genotype 1b (Con1) stable HCV replicon in Huh-7-derived cells. Briefly: Stable subgenomic HCV replicon EC50, genotype 1b (Renilla luciferase). To be noted: Hepatitis C virus, stable replicon genotype 1b, 72 h, read-out: EC50 1B RLUC. In a few lines:
as §1

Test [3] relates to genotype 2a (JFH-1) stable HCV replicon in Huh-7-derived cells. The experiment in a line: Stable subgenomic HCV replicon EC50, genotype 2a (Renilla luciferase). To be noted: Hepatitis C virus, stable replicon genotype 2a, 72 h, read-out: EC50 2A RLUC. In a few lines:
as §1

The test system of test [4] is genotype 3a (S52) stable HCV replicon in Huh-7-derived cells. Briefly: Stable subgenomic HCV replicon EC50, genotype 3a (Renilla luciferase). To be noted: Hepatitis C virus, 72 h, read-out: EC50 3A RLUC.
For test [5], the system named is genotype 4a (ED43) stable HCV replicon in Huh-7-derived cells. The experiment in a line: Stable subgenomic HCV replicon EC50, genotype 4a (Renilla luciferase). To be noted: Hepatitis C virus, 72 h, read-out: EC50 4A RLUC. In a few lines: as §1
Test [6] deals with genotype 3a (S52) wild type transient HCV replicon in Huh-7-derived cells. Briefly: Transient-transfected HCV replicon EC50, genotype 3a wild type. To be noted: Hepatitis C virus, 72 h, read-out: EC50 3A WT.
The test system of test [7] is genotype 1a (H77) wild type transient HCV replicon in Huh-7-derived cells. Briefly: Transient-transfected HCV replicon EC50, genotype 1a wild type. To be noted: Hepatitis C virus, 72 h, read-out: EC50 1A WT.
Test [8] relates to genotype 1a NS3/4a protease inhibitor resistant variant R155K transient HCV replicon in Huh-7-derived cells. The experiment in a line: Transient-transfected HCV replicon EC50, genotype 1a R155K. To be noted: Hepatitis C virus, 72 h, read-out: EC50 1A R155K, transient-transfected replicon genotype 1a R155K resistant variant, 72 h.
For test [9], the system named is genotype 1b (Con1) wild type transient HCV replicon in Huh-7-derived cells. Briefly: Transient-transfected HCV replicon EC50, genotype 1b wild type. To be noted: Hepatitis C virus, 72 h, read-out: EC50 1B WT.
The subject of test [10] is genotype 1b NS3/4a protease inhibitor resistant variant D168A transient HCV replicon in Huh-7-derived cells. The experiment in a line: Transient-transfected HCV replicon EC50, genotype 1b D168A. To be noted: Hepatitis C virus, 72 h, read-out: EC50 1B D168A, transient-transfected replicon genotype 1b D168A resistant variant, 72 h.
Setting [11] is: transient-transfected replicon genotype 3a wild type.
The mark [12] stands for this setting: transient-transfected replicon genotype 1a wild type.
The mark [13] stands for this setting: transient-transfected replicon genotype 1b wild type.

The structures appear in SMILES notation. Where two headings read alike, the source gives them in different places.

Regarding `CC[C@@H]1[C@@H]2CN(C(=O)[C@H](C(C)(C)C)NC(=O)O[C@@H]3C[C@H]3CCCCCc3nc4ccc(OC)cc4nc3O2)[C@@H]1C(=O)N[C@]1(C(=O)NS(=O)(=O)C2(C)CC2)C[C@H]1CC` [Example 4, (1aR,5S,8S,9S,10R,22aR)-5-tert-butyl-9-ethyl-N-[(1R,2R)-2-ethyl-1-{[(1-methylcyclopropyl)sulfonyl]carbamoyl}cyclopropyl]-14-methoxy-3,6-dioxo-1,1a,3,4,5,6,9,10,18,19,20,21,22,22a-tetradecahydro-8H-7,10-methanocyclopropa[18,19][1,10,3,6]dioxadiazacyclononadecino[11,12-b]quinoxaline-8-carboxamide], the concentration giving a half-maximal response (EC50) was determined as 10.7 nM in test [1]; 9.6 nM in [2]; 16 nM in test [3]; 271 nM in [4]; 7.9 nM in test [5]; 68 nM in [6] (setting [11]). The EC50 was 7.1 nM in test [7] (setting [12]), 20 nM in [8], 6.5 nM in test [9] (setting [13]) and 66 nM in test [10].
As to `COc1ccc2nc3c(nc2c1)O[C@H]1CN(C(=O)[C@H](C(C)(C)C)NC(=O)O[C@@H]2C[C@H]2CCCCC3)[C@H](C(=O)N[C@]2(C(=O)NS(=O)(=O)C3(C)CC3)C[C@H]2C(F)F)[C@@H]1CC#N` [Example 50, (1aR,5S,8S,9S,10R,22aR)-5-tert-butyl-9-(cyanomethyl)-N-[(1R,2R)-2-(difluoromethyl)-1-{[(1-methylcyclopropyl)sulfonyl]carbamoyl}cyclopropyl]-14-methoxy-3,6-dioxo-1,1a,3,4,5,6,9,10,18,19,20,21,22,22a-tetradecahydro-8H-7,10-methanocyclopropa[18,19][1,10,3,6]dioxadiazacyclononadecino[11,12-b]quinoxaline-8-carboxamide], the EC50 in test [1] was determined as 4440 nM; in test [2], 4440 nM; in [3], 379 nM; in test [4] it was 19700 nM; in [5] it was 4440 nM; in test [6] (setting [11]), 26800 nM. Further, the EC50 in test [7] (setting [12]) turned out to be 4440 nM; in [8], 3830 nM; in [9] (setting [13]), 4440 nM; in test [10], 4440 nM.
For the compound `COc1ccc2nc3c(nc2c1)O[C@H]1CN(C(=O)[C@H](C(C)(C)C)NC(=O)O[C@@H]2C[C@@H]4C[C@@H]4[C@H]2CCCCC3)[C@H](C(=O)N[C@]2(C(=O)NS(=O)(=O)C3CC3)C[C@H]2CC(F)F)[C@@H]1C` [Example 57, (1aS,2aR,6S,9S,10S,11R,23aR,23bS)-6-tert-butyl-N-[(1R,2S)-1-[(cyclopropylsulfonyl)carbamoyl]-2-(2,2-difluoroethyl)cyclopropyl]-15-methoxy-10-methyl-4,7-dioxo-1a,2,2a,4,5,6,7,10,11,19,20,21,22,23,23a,23b-hexadecahydro-1H,9H-8,11-methanocyclopropa[4′,5′]cyclopenta[1′,2′:18,19][1,10,3,6]dioxadiazacyclononadecino[11,12-b]quinoxaline-9-carboxamide], the EC50 in [1] is 12 nM; in test [2], 11 nM; in test [3] it was 21 nM; in test [4], 166 nM; in test [5], 4.9 nM; in test [6], 54 nM. Moreover, the EC50 amounted to 12 nM in [7], 17 nM in test [8], 7.5 nM in test [9] and 48 nM in [10].
As to `C=C[C@@H]1C[C@]1(NC(=O)[C@@H]1[C@H](CC)[C@@H]2CN1C(=O)[C@H](C(C)(C)C)NC(=O)O[C@@H]1C[C@H]1CCCCCc1nc3ccc(OC)cc3nc1O2)C(=O)NS(=O)(=O)C1CC1` [Example 91, (1aR,5S,8S,9S,10R,22aR)-5-tert-butyl-N-{(1R,2S)-1-[(cyclopropylsulfonyl)carbamoyl]-2-ethenylcyclopropyl}-9-ethyl-14-methoxy-3,6-dioxo-1,1a,3,4,5,6,9,10,18,19,20,21,22,22a-tetradecahydro-8H-7,10-methanocyclopropa[18,19][1,10,3,6]dioxadiazacyclononadecino[11,12-b]quinoxaline-8-carboxamide], the EC50 in [1] came to 2.4 nM; in test [2] it was 1.9 nM; in test [3], 4 nM; in [4], 149 nM; in [5] it was 2.4 nM; in test [6] (setting [11]), 25 nM. The EC50 in [7] (setting [12]) was 2.3 nM; in test [8], 3.5 nM; in test [9] (setting [13]), 1.3 nM; in [10], 9.2 nM.
As to `COc1ccc2nc3c(nc2c1)O[C@H]1CN(C(=O)[C@H](C(C)(C)C)NC(=O)O[C@@H]2C[C@@H]4C[C@@H]4[C@H]2CCCCC3)[C@H](C(=O)N[C@]2(C(=O)NS(=O)(=O)C3(C)CC3)C[C@H]2C(F)F)[C@@H]1C` [Example 49, (1aS,2aR,6S,9S,10S,11R,23aR,23bS)-6-tert-butyl-N-[(1R,2R)-2-(difluoromethyl)-1-{[(1-methylcyclopropyl)sulfonyl]carbamoyl}cyclopropyl]-15-methoxy-10-methyl-4,7-dioxo-1a,2,2a,4,5,6,7,10,11,19,20,21,22,23,23a,23b-hexadecahydro-1H,9H-8,11-methanocyclopropa[4′,5′]cyclopenta[1′,2′:18,19][1,10,3,6]dioxadiazacyclononadecino[11,12-b]quinoxaline-9-carboxamide], the EC50 in [1] was 3.7 nM; in [2] it was 4.1 nM; in test [3], 5.2 nM; in test [4], 20 nM; in test [5], 3.5 nM; in [6] it was 6.3 nM. The EC50 in test [7] is 3.5 nM; in test [8] it was 3.8 nM; in test [9] it was 2.8 nM; in test [10] it was 4.2 nM.
On to `CC[C@@H]1[C@@H]2CN(C(=O)[C@H](C(C)(C)C)NC(=O)O[C@@H]3C[C@H]3CC/C=C/C(F)(F)c3nc4ccc(C#N)cc4nc3O2)[C@@H]1C(=O)N[C@]1(C(=O)NS(=O)(=O)C2(C)CC2)C[C@H]1C(F)F` [Example 84, (1aR,5S,8S,9S,10R,19E,22aR)-5-tert-butyl-14-cyano-N-[(1R,2R)-2-(difluoromethyl)-1-{[(1-methylcyclopropyl)sulfonyl]carbamoyl}cyclopropyl]-9-ethyl-18,18-difluoro-3,6-dioxo-1,1a,3,4,5,6,9,10,18,21,22,22a-dodecahydro-8H-7,10-methanocyclopropa[18,19][1,10,3,6]dioxadiazacyclononadecino[11,12-b]quinoxaline-8-carboxamide], for which the EC50 in test [1] stood at 5.9 nM; in test [2], 5.7 nM; in test [3], 7.2 nM; in [4] it was 27 nM; in test [5] it was 6.4 nM; in test [6] (setting [11]) it was 11 nM. Moreover, the EC50 in test [7] (setting [12]) came out at 5.4 nM; in test [8] it was 4 nM; in test [9] (setting [13]) it was 2.5 nM; in [10], 5.2 nM.
Take `CC[C@@H]1[C@@H]2CN(C(=O)[C@H](C(C)(C)C)NC(=O)O[C@@H]3C[C@H]3CCCCC(F)(F)c3nc4ccc(OC)cc4nc3O2)[C@@H]1C(=O)N[C@]1(C(=O)NS(=O)(=O)C2CC2)C[C@H]1CC` [Example 34, (1aR,5S,8S,9S,10R,22aR)-5-tert-butyl-N-{(1R,2R)-1-[(cyclopropylsulfonyl)carbamoyl]-2-ethylcyclopropyl}-9-ethyl-18,18-difluoro-14-methoxy-3,6-dioxo-1,1a,3,4,5,6,9,10,18,19,20,21,22,22a-tetradecahydro-8H-7,10-methanocyclopropa[18,19][1,10,3,6]dioxadiazacyclononadecino[11,12-b]quinoxaline-8-carboxamide]: the EC50 is 12 nM in test [1]; 13 nM in test [2]; 18 nM in test [3]; 322 nM in [4]; 9.7 nM in [5]; 46 nM in test [6] (setting [11]). The EC50 came to 15 nM in test [7] (setting [12]), 18 nM in test [8], 9 nM in [9] (setting [13]) and 64 nM in test [10].

For orientation: EC50 means the midpoint of the concentration-response curve.

Values taken from patent publication US10335409B2 (priority 2012, dated 2019).
